Source: US6683110B1, “Methyl esters of substituted 4-oxo-2-butenoic acid for treatment of tuberculosis” (University of Central Florida, priority 2001, dated 2004)

What was measured:
in vivo = conditions: both sexes, mouse, ip, white mice, intraperitoneal injection of 2% solution in starch, 14 day observation
Experimental: Animal Toxicity Bioassay. Acute toxicity was studied on white mice of both sexes with weight ranging between 18-26 grams under intraperitoneal injection of 2% solution of tested compound in starch (the compound was dissolved in starch slime and injected) on the basis of 0.1 ml of solution per 10 g of the animal weight. Each dose was tested on the group of 6 animals that were observed during 14 day period. (This method was approved by the Pharmacology committee of Russian Ministry of Health and has been widely used since 1968.) Averaged lethal dose (LD50) of the compound was computed using results of experiments on 5-7 groups of animals using the method of Litchfield and Wilkinson. (Belenkii M. L. “Elements of quantative determination of the pharmacological effect,” Leningrad, 1963, 71 pages).
The acute toxicity of isoniazid is as following: LCLo (lowest published lethal concentration) for man is 100 mg/kg. […] All toxicity information about isoniazid can also be found on the web site: http://ntp-server.niehs.nih.gov/htdocs/Chem H&S/NTP Chem5/Radian54-85-3.html

[1] = test system: M. tuberculosis (ATCC 25177); assay: BACTEC 460 TB radiometric growth inhibition bioassay (bacteriostatic activity); assay type: cell-based, Mycobacterium tuberculosis; conditions: final concentration of 0.1 mg/ml in Bactec 7H12 B+ medium; percent inhibition from growth index
Stability in solution = assay type: physicochemical; conditions: decomposes quickly when the solution is heated or stored for a long time, with formation of OF-12
man = conditions: cited from earlier work

Row | SMILES | LD50 at 14 day (in vivo) | percent activity against Mycobacterium tuberculosis [1] | Stability in solutions (Stability in solution) | acute ingestion leading to mild toxicity (man; adults, acute ingestion) | ingestion that may be fatal (man; adults, acute ingestion) | ingestion usually fatal if not appropriately treated (man; adults, acute ingestion) | LCLo (lowest published lethal concentration) (man; man)
1 | COC(=O)C(=CC(=O)C(C)(C)C)Nc1ccc(Br)cc1 [OF-15, 2-(4-Bromophenylamino)-5,5-dimethyl-4-oxohex-2-enoic acid methyl ester] | > 1500 mg/kg | 98% | – | – | – | – | –
2 | CCOc1ccc(C(=O)C=C(NN=C2c3ccccc3-c3ccccc32)C(=O)OC)cc1 [OF-12, 4-(4-Ethoxyphenyl)-2-(N′-fluoren-9-ylidenehydrazino)-4-oxobut-2-enoic acid methyl ester] | > 1500 mg/kg | 81% | – | – | – | – | –
3 | CCOc1ccc(C(=O)CC(O)(NN=C2c3ccccc3-c3ccccc32)C(=O)OC)cc1 (centres unmarked) [OF-13, 4-(4-Ethoxyphenyl)-2-(N′-fluoren-9-ylidenehydrazino)-2-hydroxy-4-oxobutyric acid methyl ester] | > 1500 mg/kg | 88% | not stable in solutions | – | – | – | –
4 | NNC(=O)c1ccncc1 [isoniazid, isonicotinic acid hydrazide] | – | – | – | ≥ 1.5 g | 6 to 10 g | 15 g | 100 mg/kg
